≈ marks a conversion by molar mass, not a printed value. Where two headings read alike, the source gives them in different places.
How the values were obtained:
Type in all cases: cell-based
[1] = tested on: Staphylococcus aureus cultures; test: Broth dilution MIC in trypticase soy broth, low and high NaCl (Example 10); details: Staphylococcus aureus, TSB, read-out: MIC
Description: This example compares the antibiotic activities of methicillin, cephalothin and cephaloridine with the compounds of Examples 1, 2 and 3, in broth dilution tests. The MIC values, in μg/ml., are against the same Staphylococcus aureus cultures described in Example 9, except that in this example the cultures were grown in trypticase soy broth (TSB). Growing the cultures in two broth cultures, one having a low (0.5 percent) sodium chloride content and one having a high (5.0 percent) sodium chloride content is said to assist in identifying the methicillin-resistant cultures from those which are not methicillin-resistant. […] See Chabbert, Y. A., 1967 Postgrad. Med. J., 43 (suppl); 40-46. One expects that similar changes in MIC values for this type of culture to other β-lactam antibiotics, e.g., various penicillins and cephalosporins, to have similar implications. […] That is, methicillin-resistant S.aureus cultures are susceptible to the cephalosporin antibiotics used in this invention.

[2] = tested on: Staphylococcus aureus cultures; test: Agar dilution susceptibility test, phenylthioacetyl cephalosporins vs methicillin resistant S. aureus (Example 9); details: for MIC: Staphylococcus aureus, read-out: MIC
Excerpt: This example compares the antibiotic activities of three known compounds, methicillin, cephalothin, and cephaloridine, with three compounds from the above examples, in terms of minimum inhibitory concentration (MIC) values in microgram/milliliter units against various isolates of Staphylococcus aureus cultures. The culture numbers and the procedures used to obtain the reported data are disclosed by W. E. Wick and D. A. Preston in their article "Heterogeneous Methicillin-Resistant Staphylococcus Aureus" which appeared in Progress in Antimicrobial And Anticancer Chemotherapy, Proceedings of the 6th International Congress of Chemotherapy, Volume, 1, U. of Tokyo Press, Tokyo, (1970). In these agardilution susceptibility tests, the inocula were diluted to 10^3 bacteria per spot. Cultures 3055 (benzylpenicillin sensitive) and H232 (benzylpenicillin-resistant) are controls. The remaining cultures are methicillin-resistant, and, except for 3136, are clinical isolates. Culture 3136 is a 4th transfer laboratory selected mutant.

[3] = tested on: Staphylococcus aureus cultures; test: Modified Bauer-Kirby Disc Susceptibility Test (Example 11); parameters: zone of inhibition: dose or concentration left out as unconfirmed; details: for zone of inhibition: Staphylococcus aureus; for Change 37°-30°: 30 mg Disc
Description: This example exemplifies the antibiotic activity of 7-[2'-(3"-chloro-4"-fluorophenylthio)acetamido]cephalosporanic acid, a water soluble compound, described in Example 8, against various Staphylococcus aureus cultures, in a modified Bauer-Kirby Disc Susceptibility Test (Bauer, A. W., W. M. M. Kirby, J. C. Sherris, and M. Turck, 1966, Amer. J. Clin. Pathol. 45:493-496). In this test the cultures were incubated at both 37° C. or 30° C. […] 16, 1968, the heterogeneity of methicilllin-resistant S. aureus is manifested by incubation at 30° C.

[4] = culture 3130, table part marked b
[5] = culture 3130, table part marked c
[6] = culture 3131, table part marked b
[7] = culture 3131, table part marked c
[8] = culture 3134, table part marked b
[9] = culture 3134, table part marked c
[10] = culture 3135, table part marked b
[11] = culture 3135, table part marked c
[12] = culture 3136, table part marked b
[13] = culture 3136, table part marked c
[14] = culture 3137, table part marked b
[15] = culture 3137, table part marked c
[16] = culture 3138, table part marked b
[17] = culture 3138, table part marked c
[18] = culture 3139, table part marked b
[19] = culture 3139, table part marked c
[20] = culture (Seattle) 966, table part marked b
[21] = culture (Seattle) 966, table part marked c
[22] = culture S61, table part marked b
[23] = culture S61, table part marked c

CC(=O)OCC1=C(C(=O)O)N2C(=O)C(NC(=O)CSc3cc(Cl)cc(Cl)c3)C2SC1 (centres unmarked) [Example 3, 7-(3,5-Dichlorophenylthioacetamido)-cephalosporanic acid]
MIC ([1]; culture 3055 (control), table part marked b): 0.06 µg/mL (≈ 0.122 µM) | MIC ([1]; culture 3055 (control), table part marked c): 0.06 µg/mL (≈ 0.122 µM) | MIC [1, 4]: < 0.5 µg/mL | MIC [1, 5]: 2 µg/mL (≈ 4.07 µM) | MIC [1, 6]: < 0.5 µg/mL | MIC [1, 7]: 1 µg/mL (≈ 2.04 µM) | MIC ([1]; culture 3132 (first column so headed), table part marked b): < 0.5 µg/mL | MIC ([1]; culture 3132 (first column so headed), table part marked c): 1 µg/mL (≈ 2.04 µM) | MIC ([1]; culture 3132 (second column so headed), table part marked b): < 0.5 µg/mL | MIC ([1]; culture 3132 (second column so headed), table part marked c): 2 µg/mL (≈ 4.07 µM) | MIC [1, 8]: 1 µg/mL (≈ 2.04 µM) | MIC [1, 9]: 2 µg/mL (≈ 4.07 µM) | MIC [1, 10]: < 0.5 µg/mL | MIC [1, 11]: 2 µg/mL (≈ 4.07 µM) | MIC [1, 12]: 0.5 µg/mL (≈ 1.02 µM) | MIC [1, 13]: 2 µg/mL (≈ 4.07 µM) | MIC [1, 14]: 2 µg/mL (≈ 4.07 µM) | MIC [1, 15]: 4 µg/mL (≈ 8.14 µM) | MIC [1, 16]: 1 µg/mL (≈ 2.04 µM) | MIC [1, 17]: 2 µg/mL (≈ 4.07 µM) | MIC [1, 18]: 2 µg/mL (≈ 4.07 µM) | MIC [1, 19]: 2 µg/mL (≈ 4.07 µM) | MIC [1, 20]: 1 µg/mL (≈ 2.04 µM) | MIC [1, 21]: 8 µg/mL (≈ 16.3 µM) | MIC ([1]; culture H232 (control), table part marked b): 0.12 µg/mL (≈ 0.244 µM) | MIC ([1]; culture H232 (control), table part marked c): 0.12 µg/mL (≈ 0.244 µM) | MIC ([1]; culture Kavarnick 1138501, table part marked b): 0.5 µg/mL (≈ 1.02 µM) | MIC ([1]; culture Kavarnick 1138501, table part marked c): 1 µg/mL (≈ 2.04 µM) | MIC [1, 22]: 0.5 µg/mL (≈ 1.02 µM) | MIC [1, 23]: 1 µg/mL (≈ 2.04 µM) | MIC ([1]; culture S, table part marked b): 0.5 µg/mL (≈ 1.02 µM) | MIC ([1]; culture S, table part marked c): 2 µg/mL (≈ 4.07 µM) | MIC ([2]; culture 3055 (control, benzylpenicillin sensitive), table part marked b): < 0.06 µg/mL | MIC ([2]; culture 3055 (control, benzylpenicillin sensitive), table part marked c): < 0.06 µg/mL | MIC [2, 4]: 0.5 µg/mL (≈ 1.02 µM) | MIC [2, 5]: 1 µg/mL (≈ 2.04 µM) | MIC [2, 6]: 0.5 µg/mL (≈ 1.02 µM) | MIC [2, 7]: 2 µg/mL (≈ 4.07 µM) | MIC ([2]; culture 3132, table part marked b): 0.25 µg/mL (≈ 0.509 µM) | MIC ([2]; culture 3132, table part marked c): 0.5 µg/mL (≈ 1.02 µM) | MIC ([2]; culture 3133, table part marked b): 1 µg/mL (≈ 2.04 µM) | MIC ([2]; culture 3133, table part marked c): 1 µg/mL (≈ 2.04 µM) | MIC [2, 8]: 0.5 µg/mL (≈ 1.02 µM) | MIC [2, 9]: 1 µg/mL (≈ 2.04 µM) | MIC [2, 10]: 0.5 µg/mL (≈ 1.02 µM) | MIC [2, 11]: 1 µg/mL (≈ 2.04 µM) | MIC [2, 12]: 0.25 µg/mL (≈ 0.509 µM) | MIC [2, 13]: 2 µg/mL (≈ 4.07 µM) | MIC [2, 14]: 2 µg/mL (≈ 4.07 µM) | MIC [2, 15]: 4 µg/mL (≈ 8.14 µM) | MIC [2, 16]: 2 µg/mL (≈ 4.07 µM) | MIC [2, 17]: 1 µg/mL (≈ 2.04 µM) | MIC [2, 18]: 0.5 µg/mL (≈ 1.02 µM) | MIC [2, 19]: 1 µg/mL (≈ 2.04 µM) | MIC [2, 20]: 0.25 µg/mL (≈ 0.509 µM) | MIC [2, 21]: 0.5 µg/mL (≈ 1.02 µM) | MIC ([2]; culture H232 (control, benzylpenicillin-resistant), table part marked b): < 0.06 µg/mL | MIC ([2]; culture H232 (control, benzylpenicillin-resistant), table part marked c): < 0.06 µg/mL | MIC ([2]; culture Kavarmark 1138501, table part marked b): 0.5 µg/mL (≈ 1.02 µM) | MIC ([2]; culture Kavarmark 1138501, table part marked c): 2 µg/mL (≈ 4.07 µM) | MIC [2, 22]: 0.5 µg/mL (≈ 1.02 µM) | MIC [2, 23]: 2 µg/mL (≈ 4.07 µM) | effectiveness in in vitro tests vs methicillin, cephalothin and cephaloridine ([2]; various cultures of methicillin-resistant Staphylococcus aureus): substantially more effective than methicillin, cephalothin, and cephaloridine | zone of inhibition ([3]; culture 3055 (penicillin sensitive), 30°, read-out: disc susceptibility (zone) at 30°): > 35 mm | zone of inhibition ([3]; culture 3055 (penicillin sensitive), 37°, read-out: disc susceptibility (zone) at 37°): > 35 mm | zone of inhibition ([3]; culture 3074 (methicillin sensitive, penicillinase producing), 30°, read-out: disc susceptibility (zone) at 30°): 35 mm | zone of inhibition ([3]; culture 3074 (methicillin sensitive, penicillinase producing), 37°, read-out: disc susceptibility (zone) at 37°): 35 mm | zone of inhibition ([3]; culture 3125 (methicillin resistant), 30°, read-out: disc susceptibility (zone) at 30°): 37 mm | zone of inhibition ([3]; culture 3125 (methicillin resistant), 37°, read-out: disc susceptibility (zone) at 37°): 34.2 mm | zone of inhibition ([3]; culture 3130 (methicillin resistant), 30°, read-out: disc susceptibility (zone) at 30°): 33.6 mm | zone of inhibition ([3]; culture 3130 (methicillin resistant), 37°, read-out: disc susceptibility (zone) at 37°): 32 mm | zone of inhibition ([3]; culture 3131 (methicillin resistant), 30°, read-out: disc susceptibility (zone) at 30°): 31.8 mm | zone of inhibition ([3]; culture 3131 (methicillin resistant), 37°, read-out: disc susceptibility (zone) at 37°): 30.6 mm | zone of inhibition ([3]; culture 3132 (methicillin resistant), 30°, read-out: disc susceptibility (zone) at 30°): 32.6 mm | zone of inhibition ([3]; culture 3132 (methicillin resistant), 37°, read-out: disc susceptibility (zone) at 37°): 31 mm | zone of inhibition ([3]; culture 3133 (methicillin resistant), 30°, read-out: disc susceptibility (zone) at 30°): 30.8 mm | zone of inhibition ([3]; culture 3133 (methicillin resistant), 37°, read-out: disc susceptibility (zone) at 37°): 29 mm | zone of inhibition ([3]; culture 3134 (methicillin resistant), 30°, read-out: disc susceptibility (zone) at 30°): 33 mm | zone of inhibition ([3]; culture 3134 (methicillin resistant), 37°, read-out: disc susceptibility (zone) at 37°): 29.8 mm | zone of inhibition ([3]; culture 3135 (methicillin resistant), 30°, read-out: disc susceptibility (zone) at 30°): 29.6 mm | zone of inhibition ([3]; culture 3135 (methicillin resistant), 37°, read-out: disc susceptibility (zone) at 37°): 28.3 mm | zone of inhibition ([3]; culture 3136 (methicillin resistant), 30°, read-out: disc susceptibility (zone) at 30°): 29.8 mm | zone of inhibition ([3]; culture 3136 (methicillin resistant), 37°, read-out: disc susceptibility (zone) at 37°): 35 mm | zone of inhibition ([3]; culture 3137 (methicillin resistant), 30°, read-out: disc susceptibility (zone) at 30°): 26 mm | zone of inhibition ([3]; culture 3137 (methicillin resistant), 37°, read-out: disc susceptibility (zone) at 37°): 26.2 mm | zone of inhibition ([3]; culture 3138 (methicillin resistant), 30°, read-out: disc susceptibility (zone) at 30°): 29.4 mm | zone of inhibition ([3]; culture 3138 (methicillin resistant), 37°, read-out: disc susceptibility (zone) at 37°): 27 mm | zone of inhibition ([3]; culture 3139 (methicillin resistant), 30°, read-out: disc susceptibility (zone) at 30°): 32.2 mm | zone of inhibition ([3]; culture 3139 (methicillin resistant), 37°, read-out: disc susceptibility (zone) at 37°): 36 mm | zone of inhibition ([3]; culture 3140 (methicillin resistant), 30°, read-out: disc susceptibility (zone) at 30°): 30.2 mm | zone of inhibition ([3]; culture 3140 (methicillin resistant), 37°, read-out: disc susceptibility (zone) at 37°): 28.8 mm | zone of inhibition ([3]; culture H232 (methicillin sensitive, penicillinase producing), 30°, read-out: disc susceptibility (zone) at 30°): 32.6 mm | zone of inhibition ([3]; culture H232 (methicillin sensitive, penicillinase producing), 37°, read-out: disc susceptibility (zone) at 37°): 34.1 mm | Change 37°-30° ([3]; culture 3074): 0 mm | Change 37°-30° ([3]; culture 3125): +2.8 mm | Change 37°-30° ([3]; culture 3130): +1.6 mm | Change 37°-30° ([3]; culture 3131): +1.2 mm | Change 37°-30° ([3]; culture 3132): +1.6 mm | Change 37°-30° ([3]; culture 3133): +1.8 mm | Change 37°-30° ([3]; culture 3134): +3.2 mm | Change 37°-30° ([3]; culture 3135): +1.3 mm | Change 37°-30° ([3]; culture 3136): +5.2 mm | Change 37°-30° ([3]; culture 3137): -0.2 mm | Change 37°-30° ([3]; culture 3138): +2.4 mm | Change 37°-30° ([3]; culture 3139): -3.8 mm | Change 37°-30° ([3]; culture 3140): +1.4 mm | Change 37°-30° ([3]; culture H232): -1.5 mm
